What all share (assay): biochemical
One experiment deals with DRB1*1101 (Homo sapiens, UniProt P01903+P01911, A100R/A169T/A87E/I96F/K41T/L162R/M171V/P40S/Q125H/Q178H/Q39Y/Q99D/R42S/S66Y/T262R/V115G/W38E).
A further experiment concerns the target DRB1*0405 (Homo sapiens, UniProt P01903+P01911, A100R/A169T/D86S/F76Y/I96L/K127E/L162R/M171V/N62H/P40V/Q125Y/R42H/S133A/S149N/S66Y/V115G/V209L/W38E). It is filed as binding.
The next experiment has as its target DRB1*0802 (Homo sapiens, UniProt P01903+P01911, A100R/A103L/A169T/F76Y/H45Y/I96F/K41T/L162R/M171V/P40S/Q125H/Q178H/Q39Y/Q99D/R218S/R42G/S66Y/V115G/W38E). The experiment is classed as binding.
For a further experiment, the target named is DR4w4 (DRB1*0401) (Homo sapiens, UniProt P01903+P01911, A100K/A169T/F76Y/I96L/K127E/L162R/M171V/N62H/P40V/Q125Y/R42H/S133A/S149N/S66Y/V115G/V209L/W38E). The experiment is classed as binding.
Another experiment concerns the target DRB1*1302 (Homo sapiens, UniProt P01903+P01911, A100E/A169T/K41T/L162R/M171V/P40S/Q125H/Q178H/Q39Y/Q99D/R42S/S66N/T262R/V115G/W38E/Y61H). It is filed as binding.
For a further experiment, the target named is DR7 (DRB1*0701) (Homo sapiens, UniProt P01903+P01911, A100R/A102G/A103Q/D57E/D86V/E43K/F76Y/K127E/L162R/M171V/P40G/Q125H/Q99D/R33Q/R42Y/R54Q/S133A/S66F/T210M/V115G/Y107V/Y59L/Y89S). The experiment is classed as binding.
A further experiment addresses DRB1*0301 (Homo sapiens, UniProt P01903+P01911, A100K/A102G/A103R/A169T/F55Y/I96L/K41T/L162R/M171V/P40S/Q125H/Q178H/Q39Y/R42S/S66N/T106N/T262R/W38E/Y61H). The experiment is classed as binding.
A further experiment addresses DRB5*0101 (Homo sapiens, UniProt P01903+Q30154).
Another experiment addresses DRB1*1501 (Homo sapiens, UniProt P01903+P01911). The experiment is classed as binding.
The target of the next experiment is DRB1*0901 (Homo sapiens, UniProt P01903+P01911, A100R/A103E/D57H/D86V/F55Y/F60I/F76Y/I96F/K127E/L162R/M171V/P40D/Q125H/Q99R/R33Q/R42F/S133A/S66N/T210M/V115G/W38K/Y107V/Y59G/Y89S). The experiment is classed as binding.
In the next experiment the target is DR1 (DRB1*0101) (Homo sapiens, UniProt P01903+P01911, A100R/D57E/F55L/F60I/F76Y/I96L/L162R/M171V/P40L/Q125E/R42F/V115G/Y59C). The experiment is classed as binding.
The target of the next experiment is DRB4*0101 (Homo sapiens, UniProt P01903+P13762, G164S). It is filed as binding.
Another experiment concerns the target DRB3*0101 (Homo sapiens, UniProt P01903+P79483). The experiment is classed as binding.

Like-named read-outs stand apart in the source and are kept apart here. No end group written: not given here.

DRB1*1302, sequence (P01903 26-254 limits assumed, other chains not shown): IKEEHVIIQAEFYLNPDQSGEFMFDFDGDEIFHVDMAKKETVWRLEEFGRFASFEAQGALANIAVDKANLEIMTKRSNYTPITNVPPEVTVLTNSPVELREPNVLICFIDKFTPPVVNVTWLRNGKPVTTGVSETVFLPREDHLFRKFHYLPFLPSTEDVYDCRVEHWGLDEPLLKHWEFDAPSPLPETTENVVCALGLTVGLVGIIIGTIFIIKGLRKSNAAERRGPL
DRB1*0301, sequence (P01903 26-254 limits assumed, other chains not shown): as above
DRB1*1101, sequence (P01903 26-254 limits assumed, other chains not shown): as above

As to TTPIIHKLGDRNSLK [Peptide 1601.17], the IC50 (in general, the midpoint of a concentration-inhibition curve) at DRB1*1101 is 4.8 µM; against DRB1*0405, 19 µM; on DRB1*0802, 0.419 µM; on DR4w4 (DRB1*0401), 0.392 µM; on DRB1*1302, 1.48 µM; against DR7 (DRB1*0701), greater than 20 µM. The IC50 at DRB1*0301 was 0.501 µM; on DRB5*0101, 5.57 µM; at DRB1*1501 it was 0.382 µM; against DRB1*0901, greater than 20 µM; on DR1 (DRB1*0101), 0.085 µM; against DRB4*0101, 0.019 µM. The compound also gave a 50% inhibitory concentration (IC50) against DRB3*0101 of 11 µM.
Regarding PCHTTKLLHRDSVDS [Peptide 1601.07], the IC50 is 2.96 µM on DRB1*1101 (Binding affinity DRB1 *1101); greater than 20 µM on DRB1*0405; 2.78 µM on DRB1*0802; greater than 20 µM against DR4w4 (DRB1*0401); greater than 20 µM at DRB1*1302; greater than 20 µM at DR7 (DRB1*0701). In addition, the IC50 is 7.26 µM against DRB1*0301; greater than 20 µM at DRB5*0101 (Binding affinity DRB5 *0101); greater than 20 µM on DRB1*1501; greater than 20 µM on DRB1*0901; greater than 20 µM against DR1 (DRB1*0101); 0.672 µM on DRB4*0101. The IC50 against DRB3*0101 is greater than 20 µM.
Consider LSQRLNVCQDKILEH [Peptide 1601.21], for which the IC50 on DRB1*1101 (Binding affinity DRB1 *1101) was greater than 20 µM; at DRB1*0405 it was 4.63 µM; at DRB1*0802, greater than 20 µM; at DR4w4 (DRB1*0401), greater than 20 µM; at DRB1*1302, greater than 20 µM; on DR7 (DRB1*0701), greater than 20 µM. Further, the IC50 at DRB1*0301 is 0.21 µM; on DRB5*0101 (Binding affinity DRB5 *0101) it was greater than 20 µM; against DRB1*1501, greater than 20 µM; at DRB1*0901, greater than 20 µM; against DR1 (DRB1*0101) it was greater than 20 µM; against DRB4*0101, 5.03 µM. Moreover, the half-maximal inhibitory concentration (IC50) on DRB3*0101 was greater than 20 µM.
In the case of DICNTMHYTNWTHIY [Peptide 1601.04], the IC50 on DRB1*1101 (Binding affinity DRB1 *1101) was greater than 20 µM; at DRB1*0405, 2.82 µM; at DR4w4 (DRB1*0401) it was 0.883 µM; against DRB1*1302 it was 1.04 µM; against DR7 (DRB1*0701), 0.412 µM; against DRB1*0301, 14.8 µM. Further, the IC50 on DRB5*0101 (Binding affinity DRB5 *0101) is greater than 20 µM; against DRB1*0901 it was 4.85 µM; against DR1 (DRB1*0101) it was 8.96 µM; against DRB4*0101, 6.05 µM; against DRB3*0101, 7.2 µM.
Turning to `CC(C)C[C@H](NC(=O)[C@H](CCC(N)=O)NC(=O)[C@H](CCCCN)NC(=O)[C@@H](NC(=O)[C@H](CC(C)C)NC(=O)[C@H](CCC(N)=O)NC(=O)[C@@H](NC(=O)[C@H](C)NC(=O)[C@H](CO)NC(=O)[C@@H](NC(=O)[C@@H](NC(=O)[C@H](CC(=O)O)NC(=O)[C@H](CC(=O)O)NC(=O)[C@@H](N)CO)[C@@H](C)O)C(C)C)[C@@H](C)O)C(C)C)C(=O)N[C@@H](CCC(N)=O)C(=O)O` [Peptide 1601.13], the IC50 was 15.6 µM at DRB1*1101 (Binding affinity DRB1 *1101); 16.3 µM on DRB1*0405; 19.3 µM at DRB1*0802; 9.55 µM on DR4w4 (DRB1*0401); 16.5 µM on DRB1*1302; 7.67 µM against DR7 (DRB1*0701). Moreover, the IC50 against DRB1*0301 is 10.5 µM; at DRB5*0101 (Binding affinity DRB5 *0101), greater than 20 µM; at DRB1*1501, greater than 20 µM; on DR1 (DRB1*0101), 7.24 µM; against DRB4*0101, 0.026 µM; on DRB3*0101, greater than 20 µM.
Turning to GVNHQHLPARRAEPQ [Peptide 1543.05], the IC50 on DRB1*1101 (Binding affinity DRB1 *1101) was greater than 20 µM; at DRB1*0405, greater than 20 µM; on DRB1*0802, greater than 20 µM; against DR4w4 (DRB1*0401), greater than 20 µM; against DRB1*1302, greater than 20 µM; at DR7 (DRB1*0701), 16.8 µM. Besides, the IC50 at DRB1*0301 is greater than 20 µM; on DRB5*0101 (Binding affinity DRB5 *0101), greater than 20 µM; on DRB1*1501, greater than 20 µM; on DRB1*0901, greater than 20 µM; at DR1 (DRB1*0101), 0.276 µM; at DRB4*0101 it was 14.6 µM. Also, the IC50 at DRB3*0101 is greater than 20 µM.
In the case of FLDVVTIPNSVQISV [Peptide 1601.40], the IC50 at DRB1*1101 (Binding affinity DRB1 *1101) worked out at 2.2 µM; against DRB1*0405, 1.78 µM; on DRB1*0802 it was 14.7 µM; against DR4w4 (DRB1*0401), 0.017 µM; at DRB1*1302 it was 0.053 µM; against DR7 (DRB1*0701), 0.492 µM. For the same compound, the IC50 against DRB1*0301 is 8.36 µM; at DRB5*0101 (Binding affinity DRB5 *0101), greater than 20 µM; against DRB1*0901, 9.35 µM; at DR1 (DRB1*0101) it was 0.551 µM; at DRB4*0101, 2.21 µM; against DRB3*0101, 17.6 µM.
Consider DSVDSVNCGVISAAA [Peptide 1601.24], for which the IC50 at DRB1*1101 (Binding affinity DRB1 *1101) is greater than 20 µM; on DRB1*0405 it was 13.6 µM; against DRB1*0802, greater than 20 µM; at DR4w4 (DRB1*0401) it was 1.28 µM; on DRB1*1302, 0.736 µM; against DR7 (DRB1*0701), 2.14 µM. Further, the IC50 against DRB1*0301 is greater than 20 µM; on DRB5*0101 (Binding affinity DRB5 *0101) it was greater than 20 µM; on DRB1*1501, greater than 20 µM; against DRB1*0901 it was 6.73 µM; against DR1 (DRB1*0101) it was 0.916 µM; on DRB4*0101 it was 8.71 µM. The compound further registered an IC50 on DRB3*0101 greater than 20 µM.
As for NTTPIIHLKGDKNSL [Peptide 1601.37], the IC50 at DRB1*1101 (Binding affinity DRB1 *1101) was greater than 20 µM; against DRB1*0405 it was greater than 20 µM; against DRB1*0802, 1.9 µM; on DR4w4 (DRB1*0401), 11.9 µM; against DRB1*1302 it was 5.44 µM; on DR7 (DRB1*0701), 18.8 µM. Besides, the IC50 was 7.48 µM against DRB1*0301; greater than 20 µM at DRB5*0101 (Binding affinity DRB5 *0101); 11.4 µM against DRB1*1501; greater than 20 µM at DRB1*0901; 0.86 µM against DR1 (DRB1*0101); 0.075 µM on DRB4*0101. The compound further registered an IC50 against DRB3*0101 greater than 20 µM.
For PTGCLKKHGYTVEVQ [Peptide 1601.23], the IC50 on DRB1*1101 (Binding affinity DRB1 *1101) was greater than 20 µM; on DRB1*0405, greater than 20 µM; at DRB1*0802, greater than 20 µM; on DR4w4 (DRB1*0401), 19.8 µM; at DRB1*1302 it was 0.082 µM; against DR7 (DRB1*0701), 2.27 µM. Besides, the IC50 against DRB1*0301 was greater than 20 µM; at DRB5*0101 (Binding affinity DRB5 *0101), greater than 20 µM; against DRB1*0901 it was 1.74 µM; at DR1 (DRB1*0101), 17.9 µM; at DRB4*0101 it was 7.47 µM; against DRB3*0101, greater than 20 µM.
Turning to LKGDANILKCLRYRL [Peptide 1601.26], the IC50 came out at 5.53 µM on DRB1*1101 (Binding affinity DRB1 *1101); 3.14 µM against DRB1*0405; 5.59 µM on DR4w4 (DRB1*0401); 6.9 µM against DRB1*1302; 9.02 µM at DR7 (DRB1*0701); 0.052 µM against DRB1*0301. The IC50 was greater than 20 µM at DRB5*0101 (Binding affinity DRB5 *0101); 0.609 µM against DRB1*1501; greater than 20 µM on DRB1*0901; 17.2 µM at DR1 (DRB1*0101); 6.22 µM against DRB4*0101; 3.19 µM against DRB3*0101.
Turning to `CC[C@H](C)[C@H](NC(=O)CNC(=O)[C@@H](NC(=O)[C@H](CCCCN)NC(=O)[C@H](CCC(=O)O)NC(=O)[C@H](CC(N)=O)NC(=O)CNC(=O)[C@H](C)N)[C@@H](C)O)C(=O)N[C@@H](CC(C)C)C(=O)N[C@H](C(=O)N[C@H](C(=O)N[C@H](C(=O)N[C@@H](Cc1ccc(O)cc1)C(=O)N[C@@H](Cc1c[nH]cn1)C(=O)N[C@@H](CO)C(=O)O)[C@@H](C)O)C(C)C)[C@@H](C)O` [Peptide 1601.18], the IC50 was greater than 20 µM on DRB1*1101 (Binding affinity DRB1 *1101); 6.75 µM against DRB1*0405; greater than 20 µM at DRB1*0802; 3.99 µM at DR4w4 (DRB1*0401); greater than 20 µM on DRB1*1302; greater than 20 µM at DRB1*0301. Further, the IC50 is greater than 20 µM on DRB5*0101 (Binding affinity DRB5 *0101); 2.81 µM against DRB1*1501; greater than 20 µM against DRB1*0901; greater than 20 µM against DR1 (DRB1*0101); 0.932 µM at DRB4*0101; greater than 20 µM on DRB3*0101.
